Assay results from BindingDB's records for doi:10.1021/jm00056a003 (Universit&#224, 1993).

Molecular target: L-type calcium channel (Felis catus)
Test: Inhibition of (-)-[3H]- D-888 binding to L-type calcium channels in kitten heart ventricle membranes

- IC50: 0.26 µM
SMILES: COc1ccc(CCN(C)C2CCCC(C(C#N)(c3ccc(OC)c(OC)c3)C(C)C)C2)cc1OC (stereo unspecified) [(RSR) 2-(3,4-Dimethoxy-phenyl)-2-(3-{[2-(3,4-dimethoxy-phenyl)-ethyl]-methyl-amino}-cyclohexyl)-3-methyl-butyronitrile]
